In US10035794B2, “Heterocyclic derivatives and their use in the treatment of neurological disorders” (NOVARTIS AG, priority 2011, dated 2018):
pIC50: −log10 of the molar value.

How the values were obtained:
[1] = target: Human BACE-2 (Homo sapiens (Human), UniProt Q9Y5Z0); assay: Test 2: Inhibition of Human BACE-2; format: biochemical; conditions: mean IC50, recombinant BACE-2, pH 4.5
Source text: Test 2: Inhibition of Human BACE-2

[2] = Test 4: Inhibition of Cellular Release of Amyloid Peptide 1-40; format: cell-based, Chinese hamster; conditions: Cricetulus griseus, CHO, 24 h; read-out: Amyloid-β1-40 release IC50
Procedure: Chinese hamster ovary cells are transfected with the human gene for amyloid precursor protein. The cells are plated at a density of 8000 cells/well into 96-well microtiter plates and cultivated for 24 hours in DMEM cell culture medium containing 10% FCS. The test compound is added to the cells at various concentrations, and the cells are cultivated for 24 hours in the presence of the test compound.

[3] = target: Human BACE-1 (Homo sapiens (Human), UniProt P56817); assay: Test 1: Inhibition of Human BACE-1; conditions: read-out: BACE-1 IC50; mean IC50, recombinant BACE-1, pH 4.5
Chain of Human BACE-1 (P56817 46-457): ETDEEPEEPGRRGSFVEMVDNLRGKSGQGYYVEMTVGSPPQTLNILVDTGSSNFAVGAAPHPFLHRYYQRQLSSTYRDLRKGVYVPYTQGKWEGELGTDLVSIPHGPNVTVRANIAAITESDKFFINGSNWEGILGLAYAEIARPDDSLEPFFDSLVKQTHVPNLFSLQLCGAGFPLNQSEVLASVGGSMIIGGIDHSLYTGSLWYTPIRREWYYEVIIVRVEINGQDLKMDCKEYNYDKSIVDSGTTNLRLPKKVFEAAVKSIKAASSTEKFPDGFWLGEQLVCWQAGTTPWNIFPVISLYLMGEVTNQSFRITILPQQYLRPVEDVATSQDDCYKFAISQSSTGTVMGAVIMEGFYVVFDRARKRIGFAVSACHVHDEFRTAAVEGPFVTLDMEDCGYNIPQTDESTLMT

Chain of Human BACE-2 (Q9Y5Z0 63-473): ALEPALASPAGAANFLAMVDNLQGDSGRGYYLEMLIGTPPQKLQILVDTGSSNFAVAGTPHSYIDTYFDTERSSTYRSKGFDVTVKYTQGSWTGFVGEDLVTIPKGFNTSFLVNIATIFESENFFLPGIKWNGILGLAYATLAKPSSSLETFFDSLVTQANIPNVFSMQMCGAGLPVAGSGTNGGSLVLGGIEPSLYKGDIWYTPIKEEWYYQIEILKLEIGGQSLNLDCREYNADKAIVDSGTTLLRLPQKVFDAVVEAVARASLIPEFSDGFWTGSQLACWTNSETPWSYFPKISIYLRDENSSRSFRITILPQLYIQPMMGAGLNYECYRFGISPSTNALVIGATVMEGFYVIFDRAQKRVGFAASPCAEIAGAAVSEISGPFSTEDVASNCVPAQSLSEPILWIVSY

## NC1=NC(CF)(c2cccc(NC(=O)c3ccc(Br)cn3)n2)COC1 (centres unmarked) [Example 4, 5-Bromo-pyridine-2-carboxylic acid [6-(5-amino-3-fluoromethyl-3,6-dihydro-2H-[1,4]oxazin-3-yl)-pyridin-2-yl]-amide]
[1]
  pIC50: 5.77
[2]
  pIC50: 7.01
[3]
  pIC50: 5.80

## NC1=NC(CF)(c2cccc(NC(=O)c3ccc(Cl)cn3)n2)COC1 (centres unmarked) [Example 3, 5-{6-[(5-Chloro-pyridine-2-carbonyl)-amino]-pyridin-2-yl}-5-fluoromethyl-5,6-dihydro-2H-[1,4]oxazin-3-yl-ammonium trifluoro acetate]
[2]
  pIC50: 6.85
[3]
  pIC50: 5.59

## Cc1cnc(C(=O)Nc2ccc(F)c([C@]3(C)CO[C@@](C)(C(F)(F)F)C(N)=N3)n2)c(C)n1 [Example 41, 3,5-Dimethyl-pyrazine-2-carboxylic acid [6-((3R,6R)-5-amino-3,6-dimethyl-6-trifluoromethyl-3,6-dihydro-2H-[1,4]oxazin-3-yl)-5-fluoro-pyridin-2-yl]amide]
[2]
  pIC50: 6.79

## C[C@@]1(c2nc(NC(=O)c3nc4ccn(CC(F)F)c4nc3N)ccc2F)CO[C@@](C)(C(F)(F)F)C(N)=N1 [Example 45, 3-Amino-5-(2,2-difluoro-ethyl)-5H-pyrrolo[2,3-b]pyrazine-2-carboxylic acid [6-((3R,6R)-5-amino-3,6-dimethyl-6-trifluoromethyl-3,6-dihydro-2H-[1,4]oxazin-3-yl)-5-fluoro-pyridin-2-yl]amide]
[2]
  pIC50: 5.44

## C[C@]1(c2cccc(NC(=O)c3ccc(C#N)cn3)n2)CO[C@@](C)(C(F)(F)F)C(N)=N1 [Example 9, 5-Cyano-pyridine-2-carboxylic acid [6-((3S,6R)-5-amino-3,6-dimethyl-6-trifluoromethyl-3,6-dihydro-2H-[1,4]oxazin-3-yl)-pyridin-2-yl]-amide]
[2]
  pIC50: 5.72

## N#Cc1cnc(C(=O)Nc2ccc(F)c([C@]3(C(F)F)COCC(N)=N3)n2)c(Cl)c1 [Example 40, 3-Chloro-5-cyano-pyridine-2-carboxylic acid [6-((R)-5-amino-3-difluoromethyl-3,6-dihydro-2H-[1,4]oxazin-3-yl)-5-fluoro-pyridin-2-yl]-amide]
[2]
  pIC50: 7.92

## Cc1cc(C#N)cnc1C(=O)Nc1cc([C@@]2(C)CO[C@@](C)(C(F)(F)F)C(N)=N2)c(F)cn1 [Example 17, 5-Cyano-3-methyl-pyridine-2-carboxylic acid [4-((3S,6R)-5-amino-3,6-dimethyl-6-trifluoromethyl-3,6-dihydro-2H-[1,4]oxazin-3-yl)-5-fluoro-pyridin-2-yl]-amide]
[2]
  pIC50: 5.32

## C[C@@]1(c2nc(NC(=O)c3ncc(OCCCF)nc3N)ccc2F)CO[C@@](C)(C(F)(F)F)C(N)=N1 [Example 42, 3-Amino-5-(3-fluoro-propoxy)-pyrazine-2-carboxylic acid [6-((3R,6R)-5-amino-3,6-dimethyl-6-trifluoromethyl-3,6-dihydro-2H-[1,4]oxazin-3-yl)-5-fluoro-pyridin-2-yl]amide]
[2]
  pIC50: 7.14

## C[C@@]1(c2cccc(NC(=O)c3ncc(Br)cc3Cl)n2)CO[C@@](C)(C(F)(F)F)C(N)=N1 [Example 22, 5-Bromo-3-chloro-pyridine-2-carboxylic acid [6-((3R,6R)-5-amino-3,6-dimethyl-6-trifluoromethyl-3,6-dihydro-2H-[1,4]oxazin-3-yl)-pyridin-2-yl]-amide]
[2]
  pIC50: 7.54

## [2H]c1nc(C(=O)Nc2cccc([C@]3(C)CO[C@@](C)(C(F)(F)F)C(N)=N3)n2)c(C([2H])([2H])[2H])c([2H])c1Cl [Example 21, 5-Chloro-4,6-dideuterio-3-trideuteriomethyl-pyridine-2-carboxylic acid [6-((3R,6R)-5-amino-3,6-dimethyl-6-trifluoromethyl-3,6-dihydro-2H-[1,4]oxazin-3-yl)-pyridin-2-yl]-amide]
[2]
  pIC50: 6.96

## Cc1cc(C#N)cnc1C(=O)Nc1cccc(C2(CF)COCC(N)=N2)n1 (centres unmarked) [Example 5, 5-{6-[(5-Cyano-3-methyl-pyridine-2-carbonyl)-amino]-pyridin-2-yl}-5-fluoromethyl-5,6-dihydro-2H-[1,4]oxazin-3-yl-ammonium trifluoro acetate]
[1]
  pIC50: 6.00
[2]
  pIC50: 7.40
[3]
  pIC50: 6.57

## C[C@@]1(c2cc(NC(=O)c3ncc(OC(F)F)cc3Cl)ncc2F)CO[C@@](C)(C(F)(F)F)C(N)=N1 [Example 36, 3-Chloro-5-difluoromethoxy-pyridine-2-carboxylic acid [4-((3R,6R)-5-amino-3,6-dimethyl-6-trifluoromethyl-3,6-dihydro-2H-[1,4]oxazin-3-yl)-5-fluoro-pyridin-2-yl]-amide]
[2]
  pIC50: 6.39
